# Results: patent US11649431B2, “Cortical interneurons and other neuronal cells produced by the directed differentiation of pluripotent and multipotent cells” (MEMORIAL SLOAN-KETTERING CANCER CENTER, priority 2013, dated 2023)
# What was measured:
# SW480 cells = details: cited from earlier work
# [1] = test system: colon carcinoma cell line DLD-1; details: catenin-dependent colon carcinoma cell line; cited from earlier work
# [2] = test system: human ESC (WA-09, HES-3) and iPS cells (C72, SeV6); assay: FOXG1 / PAX6 induction during neural differentiation of hPSCs (immunofluorescence quantification); type: cell-based; details: for PAX6 expression after addition of Wnt antagonist to dual SMAD inhibition protocol: HES-3 (NKX2.1::GFP) line, FIG. 1C; for FOXG1 expression in LSB-treated cultures: Wnt antagonist added to LSB dual SMAD inhibition, XAV939 2 μM, DKK1 250 ng/ml
# Excerpt: Human ESC (lines WA-09, HES-3 (NKX2.1::GFP) and iPS cells (C72, SeV6) were maintained on mouse embryonic fibroblasts (MEFs) as described previously and dissociated with Accutase (Innovative Cell Technologies) for differentiation or dispase for passaging (Chambers et al., Nat Biotechnol 27:275-280 (2009)). Media used for differentiation included KSR-medium, N2 medium (DMEM/F12 with NaHCO3, N2B supplement (Stem Cell Technologies), and Neurobasal media with B27 (Gibco) and N2 supplements (Invitrogen) as described previously. Kriks et al., Nature 480:547-551 (2011). The small molecules compounds used included: XAV939 (2 μM; Stemgent), LDN193189 (100 nM; Stemgent), SB431542 (10 μM; Tocris), and Purmorphamine (1-2 μM; Calbiochem), ascorbic acid (200 μM) and dibutyryl-cyclic AMP (dbcAMP, 200 μM; both from Sigma). Recombinant growth factors: SHH (C25II; 50-500 ng/ml), Noggin (125 ng/ml), DKK1 (250 ng/ml), and BDNF (10 ng/ml) were purchased from R&D Systems or for FGF2 (10 ng/ml) from Promega and used at the concentrations indicated in the manuscript.
# Cultures were fixed in 4% paraformaldehyde in phospate-buffered saline and processed for immunofluorescent staining and confocal microscopy. Secondary antibodies used for primary antibody detection were species-specific Alexa-dye conjugates (Invitrogen). For primary antibodies, we used antibodies to rabbit FOXG1 (gift from Eseng Lai); mouse PAX6 (DSHB); mouse NKX2.1 (Labvision); goat NKX2.1 (C-20, Santa Cruz); rabbit OLIG2 (Chemicon); goat FOXA2 (Santa Cruz); rabbit LHX6 (Abeam); mouse RAX (Abnova); rabbit GAPDH (Thermo Scientific); goat DCX (Santa Cruz); mouse TUJ1 (Covance); rabbit GABA (Sigma); mouse Nestin (Thermo Scientific); rabbit KI67 (Labvision); mouse KI67 (Dako); rabbit Calbindin (Chemicon); mouse Calretinin (Swant); chick GFP (Abeam); goat Chat (Chemicon); rat somatostatin (Chemicon); mouse TH (Abeam); rabbit NOS (Swant); mouse Parvalbumin (Chemicon); mouse PSD-95 (Zymed); guinea-pig VGLUT1 (Synaptic systems); rabbit VGAT (Synaptic systems); and mouse Gephyrin (Synaptic Systems).
# FOXG1 and PAX6 quantification: Using a 20× objective, 25 fields were imaged from 3 wells and from 4 independent differentiation studies. The number of DAPI+ nuclei was used as the denominator and either FOXG1+ nuclei or PAX6+ nuclei were used for the numerator. NKX2.1::GFP co-labeling: Using a 20× objective, 25-30 fields were imaged from 4 wells from 4 independent differentiations. The number of NKX2.1::GFP+ cells was used as the denominator and the numerator chosen for each analyzed marker. As a control for each marker, secondary antibody in the absence of primary antibody was used as a negative control to designate signal specificity.
# motor neurons (MNs) = details: trophic factors removed, 72 hr; cited from earlier work
molecule,measurement,setting,value
"Oc1nc(-c2ccc(C(F)(F)F)cc2)nc2c1CSCC2 [XAV939, 3,5,7,8-Tetrahydro-2-[4-(trifluoromethyl)phenyl]-4H-thiopyrano[4,3-d]pyrimidin-4-one]",degradation of β-catenin,SW480 cells,promotes the degradation
same,protein levels of the axin-GSK3β complex,SW480 cells,increases
same,proliferation of DLD-1 cells,[1],inhibits proliferation
same,"effect on FOXG1 induction across independent hESC (HES-3, WA-09) and human iPSC lines (C72, SeV6)",[2]; FIG. 1E,consistent
same,PAX6 expression after addition of Wnt antagonist to dual SMAD inhibition protocol,[2],did not result in a loss
same,FOXG1 expression in LSB-treated cultures,[2],greatly enhanced
O=C1Cc2c([nH]c3ccc(Br)cc23)-c2ccccc2N1 [kenpaullone],healthy survival of MNs,motor neurons (MNs),impressive ability to prolong
"DKK1: recombinant DKK1 (Dickkopf protein 1), inhibitor of canonical Wnt signaling (protein, UniProt O94907 32-266, looked up) Dickkopf-related protein 1: TLNSVLNSNAIKNLPPPLGGAAGHPGSAVSAAPGILYPGGNKYQTIDNYQPYPCAEDEECGTDEYCASPTRGGDAGVQICLACRKRRKRCMRHAMCCPGNYCKNGICVSSDQNHFRGEIEETITESFGNDHSTLDGYSRRTTLSSKMYHTKGQEGSVCLRSSDCASGLCCARHFWSKICKPVLKEGQVCTKHRRKGSHGLEIFQRCYCGEGLSCRIQKDHHQASNSSRLHTCQRH",PAX6 expression after addition of Wnt antagonist to dual SMAD inhibition protocol,[2],did not result in a loss
same,FOXG1 expression in LSB-treated cultures,[2],greatly enhanced
